Measured values as given in PubChem BioAssay AID1918957 (Molecular Pharmacology Branch, DTP, NCI, 2023).

Test system: NCI-H1876 complex spheroid viability
Experiment: Anticancer human tumor NCI-H1876 cell line growth inhibition [LSD1];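 also: spheroids exposed to compounds for one week before readout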;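 as to viability, T/C: 100% = DMSO vehicle-treated spheroids so lower means fewer viable cells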
Conditions: for IC50: curve of first compound; for viability, T/C: stronger effect = lower value
Outline: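 Complex spheroids of tumor cells with HUVEC and human MSCs, exposed to iadademstat combined with other agents. Each agent tested in half-log steps from near clinical Cmax (else 10 microM top), DMSO ≤0.25%.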

[1] = second compound 0.1 µM, first compound 0.0316 µM
[2] = second compound 0.1 µM, first compound 0.1 µM
[3] = second compound 0.1 µM, first compound 0.316 µM
[4] = second compound 0.1 µM, first compound 1 µM
[5] = second compound 0.1 µM, first compound 3.16 µM
[6] = second compound 0.1 µM, first compound 10 µM
[7] = second compound 0.316 µM, first compound 0.0316 µM
[8] = second compound 0.316 µM, first compound 0.1 µM
[9] = second compound 0.316 µM, first compound 0.316 µM
[10] = second compound 0.316 µM, first compound 1 µM
[11] = second compound 0.316 µM, first compound 3.16 µM
[12] = second compound 0.316 µM, first compound 10 µM
[13] = second compound 1 µM, first compound 0.0316 µM
[14] = second compound 1 µM, first compound 0.1 µM
[15] = second compound 1 µM, first compound 0.316 µM
[16] = second compound 1 µM, first compound 1 µM
[17] = second compound 1 µM, first compound 3.16 µM
[18] = second compound 1 µM, first compound 10 µM
[19] = second compound 3.16 µM, first compound 0.0316 µM
[20] = second compound 3.16 µM, first compound 0.1 µM
[21] = second compound 3.16 µM, first compound 0.316 µM
[22] = second compound 3.16 µM, first compound 1 µM
[23] = second compound 3.16 µM, first compound 3.16 µM
[24] = second compound 3.16 µM, first compound 10 µM
[25] = second compound 10 µM, first compound 0.0316 µM
[26] = second compound 10 µM, first compound 0.1 µM
[27] = second compound 10 µM, first compound 0.316 µM
[28] = second compound 10 µM, first compound 1 µM
[29] = second compound 10 µM, first compound 3.16 µM
[30] = second compound 10 µM, first compound 10 µM
[31] = second compound 0.1 µM, first compound 0.00316 µM
[32] = second compound 0.1 µM, first compound 0.01 µM
[33] = second compound 0.316 µM, first compound 0.00316 µM
[34] = second compound 0.316 µM, first compound 0.01 µM
[35] = second compound 1 µM, first compound 0.00316 µM
[36] = second compound 1 µM, first compound 0.01 µM
[37] = second compound 3.16 µM, first compound 0.00316 µM
[38] = second compound 3.16 µM, first compound 0.01 µM
[39] = second compound 10 µM, first compound 0.00316 µM
[40] = second compound 10 µM, first compound 0.01 µM

## CC(C)c1c(-c2ccccc2)nc2c(C#N)c[nH]n2c1=O + NC1CC1c1ccc(-c2cccc(O)c2)cc1
Second compound 0.1 µM
  IC50: 7370 nM
Second compound 0.316 µM
  IC50: 7730 nM
Second compound 1 µM
  IC50: 7780 nM
Second compound 3.16 µM
  IC50: 6290 nM
Second compound 10 µM
  IC50: 4800 nM
[1]
  viability, T/C: 97.2%
[2]
  viability, T/C: 96.2%
[3]
  viability, T/C: 97.3%
[4]
  viability, T/C: 93.2%
[5]
  viability, T/C: 87.2%
[6]
  viability, T/C: 36.5%
[7]
  viability, T/C: 99.3%
[8]
  viability, T/C: 102%
[9]
  viability, T/C: 102%
[10]
  viability, T/C: 111%
[11]
  viability, T/C: 91%
[12]
  viability, T/C: 38.2%
[13]
  viability, T/C: 102%
[14]
  viability, T/C: 101%
[15]
  viability, T/C: 101%
[16]
  viability, T/C: 106%
[17]
  viability, T/C: 98.5%
[18]
  viability, T/C: 36.5%
[19]
  viability, T/C: 101%
[20]
  viability, T/C: 98.2%
[21]
  viability, T/C: 96.6%
[22]
  viability, T/C: 96.5%
[23]
  viability, T/C: 87.3%
[24]
  viability, T/C: 24.8%
[25]
  viability, T/C: 84.7%
[26]
  viability, T/C: 85.7%
[27]
  viability, T/C: 91.2%
[28]
  viability, T/C: 88%
[29]
  viability, T/C: 73.2%
[30]
  viability, T/C: 9.44%

## CC1COCCN1c1cc(-c2ccnn2C)c2ccnc(-c3ccn[nH]3)c2n1 (stereo not given) + NC1CC1c1ccc(-c2cccc(O)c2)cc1
Second compound 0.1 µM
  IC50: 3.89 nM
Second compound 0.316 µM
  IC50: 3.77 nM
Second compound 1 µM
  IC50: 4.13 nM
Second compound 3.16 µM
  IC50: < 3.16 nM
Second compound 10 µM
  IC50: < 3.16 nM
[31]
  viability, T/C: 51.9%
[32]
  viability, T/C: 41.5%
[1]
  viability, T/C: 16.5%
[2]
  viability, T/C: 4.97%
[3]
  viability, T/C: 3.26%
[4]
  viability, T/C: 3.75%
[33]
  viability, T/C: 51.6%
[34]
  viability, T/C: 41.4%
[7]
  viability, T/C: 17.6%
[8]
  viability, T/C: 4.99%
[9]
  viability, T/C: 3.15%
[10]
  viability, T/C: 3.99%
[35]
  viability, T/C: 51.9%
[36]
  viability, T/C: 43.7%
[13]
  viability, T/C: 19.2%
[14]
  viability, T/C: 5.94%
[15]
  viability, T/C: 3.81%
[16]
  viability, T/C: 4.68%
[37]
  viability, T/C: 43%
[38]
  viability, T/C: 39.5%
[19]
  viability, T/C: 18.3%
[20]
  viability, T/C: 5.67%
[21]
  viability, T/C: 3.74%
[22]
  viability, T/C: 4.48%
[39]
  viability, T/C: 37.5%
[40]
  viability, T/C: 31.5%
[25]
  viability, T/C: 16.8%
[26]
  viability, T/C: 6.91%
[27]
  viability, T/C: 4.75%
[28]
  viability, T/C: 5.76%

## COc1ccc([C@@H](O)c2cc(-c3ncnc4cc(N5CCOCC5)ccc34)c(F)cc2Cl)nn1 + NC1CC1c1ccc(-c2cccc(O)c2)cc1
Second compound 0.1 µM
  IC50: 1870 nM
Second compound 0.316 µM
  IC50: 1890 nM
Second compound 1 µM
  IC50: 1730 nM
Second compound 3.16 µM
  IC50: 1100 nM
Second compound 10 µM
  IC50: 546 nM
[1]
  viability, T/C: 89.6%
[2]
  viability, T/C: 91.2%
[3]
  viability, T/C: 87.8%
[4]
  viability, T/C: 67.8%
[5]
  viability, T/C: 34.7%
[6]
  viability, T/C: 9.23%
[7]
  viability, T/C: 92.5%
[8]
  viability, T/C: 93.1%
[9]
  viability, T/C: 86.1%
[10]
  viability, T/C: 71%
[11]
  viability, T/C: 33.3%
[12]
  viability, T/C: 9.61%
[13]
  viability, T/C: 103%
[14]
  viability, T/C: 102%
[15]
  viability, T/C: 88.5%
[16]
  viability, T/C: 67.5%
[17]
  viability, T/C: 31.3%
[18]
  viability, T/C: 9%
[19]
  viability, T/C: 93.9%
[20]
  viability, T/C: 91.3%
[21]
  viability, T/C: 79.3%
[22]
  viability, T/C: 50%
[23]
  viability, T/C: 26%
[24]
  viability, T/C: 6.12%
[25]
  viability, T/C: 90.3%
[26]
  viability, T/C: 83.2%
[27]
  viability, T/C: 58.6%
[28]
  viability, T/C: 38%
[29]
  viability, T/C: 17.8%
[30]
  viability, T/C: 2.16%

## O=C(C=Cn1cnc(-c2cc(C(F)(F)F)cc(C(F)(F)F)c2)n1)NNc1cnccn1 + NC1CC1c1ccc(-c2cccc(O)c2)cc1
Second compound 0.1 µM
  IC50: 78 nM
Second compound 0.316 µM
  IC50: 78.6 nM
Second compound 1 µM
  IC50: 83 nM
Second compound 3.16 µM
  IC50: 86 nM
Second compound 10 µM
  IC50: 109 nM
[31]
  viability, T/C: 96.7%
[32]
  viability, T/C: 97.2%
[1]
  viability, T/C: 77.9%
[2]
  viability, T/C: 42.8%
[3]
  viability, T/C: 16.4%
[4]
  viability, T/C: 11.7%
[33]
  viability, T/C: 105%
[34]
  viability, T/C: 104%
[7]
  viability, T/C: 81.8%
[8]
  viability, T/C: 42%
[9]
  viability, T/C: 16.4%
[10]
  viability, T/C: 11.3%
[35]
  viability, T/C: 97.5%
[36]
  viability, T/C: 103%
[13]
  viability, T/C: 83.1%
[14]
  viability, T/C: 44.1%
[15]
  viability, T/C: 16.7%
[16]
  viability, T/C: 12.9%
[37]
  viability, T/C: 97.1%
[38]
  viability, T/C: 99.5%
[19]
  viability, T/C: 78.7%
[20]
  viability, T/C: 46.9%
[21]
  viability, T/C: 18.2%
[22]
  viability, T/C: 14.1%
[39]
  viability, T/C: 96%
[40]
  viability, T/C: 92.4%
[25]
  viability, T/C: 81.1%
[26]
  viability, T/C: 53.5%
[27]
  viability, T/C: 22.8%
[28]
  viability, T/C: 18.4%

## Nc1ncn(C2CC(O)C(CO)O2)c(=O)n1 (stereo not given) + NC1CCC(NC2CC2c2ccccc2)CC1
Second compound 0.1 µM
  IC50: > 1000 nM
Second compound 0.316 µM
  IC50: > 1000 nM
Second compound 1 µM
  IC50: > 1000 nM
Second compound 3.16 µM
  IC50: > 1000 nM
Second compound 10 µM
  IC50: > 1000 nM
[31]
  viability, T/C: 104%
[32]
  viability, T/C: 109%
[1]
  viability, T/C: 99.7%
[2]
  viability, T/C: 97.5%
[3]
  viability, T/C: 98.7%
[4]
  viability, T/C: 96.2%
[33]
  viability, T/C: 103%
[34]
  viability, T/C: 98.8%
[7]
  viability, T/C: 99.8%
[8]
  viability, T/C: 98.5%
[9]
  viability, T/C: 92.5%
[10]
  viability, T/C: 86.6%
[35]
  viability, T/C: 102%
[36]
  viability, T/C: 109%
[13]
  viability, T/C: 100%
[14]
  viability, T/C: 97.9%
[15]
  viability, T/C: 93.5%
[16]
  viability, T/C: 92.2%
[37]
  viability, T/C: 98.6%
[38]
  viability, T/C: 104%
[19]
  viability, T/C: 102%
[20]
  viability, T/C: 97.6%
[21]
  viability, T/C: 92.6%
[22]
  viability, T/C: 95.8%
[39]
  viability, T/C: 99.3%
[40]
  viability, T/C: 100%
[25]
  viability, T/C: 96.7%
[26]
  viability, T/C: 106%
[27]
  viability, T/C: 92.8%
[28]
  viability, T/C: 97.1%
